Laboratory results as given in US20040106582A1, “Use of mglur5 antagonists for the treatment of pruritic conditions” (priority 2001, published 2004).

What was measured:
[1] = tested on: magnesium deficiency-induced dermatosis in rat; assay: model of magnesium deficiency-induced dermatosis in rat; assay type: in vivo; details: male hairless rats on low-magnesium diet, oral treatment at 6 mg/kg/day, 5 consecutive days
From the text: Activity of mGluR5 antagonists as antipruritics according to the invention is evidenced for example in a model of magnesium deficiency-induced dermatosis in rat. This dermatosis is characterised by a transient erythematous maculopapular rash associated with a severe generalised pruritus. The animals scratch and bite themselves causing excoriations and wounds on the head and trunk (Neckermann G., Bavandi A., Meingassner J. G., Br. J. Dermatol; 2000; 142: 669-679). According to this model, male hairless rats (Ico:OFA hr/hr) obtained from Iffa Credo (Lyon, France) at an age of 3 weeks are maintained with a diet low in magnesium (C10350, Altromin, Lage, Germany) and demineralised water. After onset of symptoms, the test compound is applied orally to 5 rats per group on 5 consecutive days. Control animals are treated similarly with the vehicle alone. Efficacy is assessed by clinical examination and semiquantitative assessment of skin lesions. The intensity and extend of the erythematous maculopapular rash is scored with 0 (not present) to 4 (most severe changes, involvement of the whole trunk). The intensity of pruritus is evaluated by the scoring of excoriations at the head, shoulders, lateral abdomen/flanks and caudal dorsal trunk with 0 (not present), 1 (few lesions) or […] (numerous lesions) resulting in a combined maximal score of 12 per animal. […]

[2] = tested on: itch induced in mice by Compound 48/80; assay: model of itch induced in mice by injection of the pruritic agent Compound 48/80; assay type: in vivo; details: C57BL/6 mice, 30 μg/10 μl s.c. Compound 48/80, oral administration of 3-30 mg/kg and 10-100 mg/kg, 30 min prior, observed 30 minutes
Method: Experiments are carried out on adult female and male C57BL/6 mice (25-30 g). Individual mice receive the test compound p.o. (a vehicle alone for control animals) 30 min. prior to subcutaneous injections of the above mentioned pruritic agent into the dorsal neck region and are then placed into a clear Perspex box. A maximum of 3 mice are closely and continuously observed by an experimenter for 30 minutes following injection. ‘Scratching episodes’ are defined as scratching focused at the site of injection using the hind paws, and differentiated from grooming behaviour that also involves licking and is systematically directed over all body regions. The duration of the itch behaviour is recorded by using a keyboard linked to three stop-clocks.

Compound | inflammatory skin reddening and infiltration [1] | signs of pruritus (scoring of excoriations) [1] | duration of scratching episodes induced by the pruritic agent [2]
Cc1cccc(C#Cc2cccnc2)n1 [2-[2-(pyridin-3-yl)ethynyl]-6-methyl-pyridine] | is not inhibited | inhibits signs of pruritus | –
Cc1cccc(C#Cc2ccccc2)n1 [2-methyl-6-phenylethynyl-pyridine] | – | – | significantly decreases
